Measurements published in ChEMBL document CHEMBL1201862, “PubChem BioAssay data set” (2004).
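Values below derive from 48-hour exposures of cells grown in 96-well plates, with endpoints linearly interpolated between the two concentrations bracketing the appropriate inhibition level. GI50: concentration for 50% inhibition of growth.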 Calls of active or inactive are those of the source. No stated cut-off is given here; in the data, active = GI50 up to about 1.1 µM and inactive = higher.

How the values were obtained:
Assay in all cases: NCI tumour cell line growth inhibition, 48 h
[1] = tested on: A549
[2] = tested on: CCRF-CEM
[3] = tested on: DMS-114
[4] = tested on: HOP-18
[5] = tested on: HOP-62
[6] = tested on: LXFL 529
[7] = tested on: M19-MEL
[8] = tested on: MOLT-4
[9] = tested on: NCI-H226
[10] = tested on: SF-539
[11] = tested on: SK-OV-3
[12] = tested on: SNB-78
[13] = tested on: SW-620
[14] = tested on: U-251
[15] = tested on: UACC-257
[16] = tested on: UACC-62
[17] = tested on: XF498
[18] = tested on: DU-145
[19] = tested on: MDA-MB-435
[20] = tested on: NCI/ADR-RES

| Compound | GI50 [1] | GI50 [2] | GI50 [3] | GI50 [4] | GI50 [5] | GI50 [6] | GI50 [7] | GI50 [8] | GI50 [9] | GI50 [10] | GI50 [11] | GI50 [12] | GI50 [13] | GI50 [14] | GI50 [15] | GI50 [16] | GI50 [17] | GI50 [18] | GI50 [19] | GI50 [20] |
| --- | --- | --- | --- | --- | --- | --- | --- | --- | --- | --- | --- | --- | --- | --- | --- | --- | --- | --- | --- | --- |
| CCCCCCCCCCOC(=O)c1cc[n+](C)cc1 | 17 µM (inactive) | 17.5 µM (inactive) | 18 µM (inactive) | 42.7 µM (inactive) | 16.8 µM (inactive) | 16.3 µM (inactive) | 17.8 µM (inactive) | 18.2 µM (inactive) | 18.1 µM (inactive) | 16.3 µM (inactive) | 16 µM (inactive) | 17.9 µM (inactive) | 19.1 µM (inactive) | 15.7 µM (inactive) | 19.8 µM (inactive) | 16.8 µM (inactive) | 17.5 µM (inactive) | – | – | – |
| CCCCNC(=O)OCC(COc1ccccc1OC)OC(=O)NCCCC (stereo not given) | > 100 µM (inactive) | > 100 µM (inactive) | 78.7 µM (inactive) | 39.5 µM (inactive) | > 100 µM (inactive) | > 100 µM (inactive) | > 100 µM (inactive) | > 100 µM (inactive) | > 100 µM (inactive) | > 100 µM (inactive) | > 100 µM (inactive) | > 100 µM (inactive) | > 100 µM (inactive) | > 100 µM (inactive) | > 100 µM (inactive) | 89.9 µM (inactive) | > 100 µM (inactive) | – | – | – |
| CCCCN(CCCC)C(=O)C(=O)CC(=O)/C=C/c1ccccc1 | > 100 µM (inactive) | > 100 µM (inactive) | > 100 µM (inactive) | > 100 µM (inactive) | > 100 µM (inactive) | > 100 µM (inactive) | > 100 µM (inactive) | > 100 µM (inactive) | > 100 µM (inactive) | > 100 µM (inactive) | > 100 µM (inactive) | > 100 µM (inactive) | > 100 µM (inactive) | > 100 µM (inactive) | > 100 µM (inactive) | > 100 µM (inactive) | – | – | – | – |
| COC(OC)c1cccc2c1C(=O)CCC1(O)c3ccccc3C1C2 (stereo not given) | > 100 µM (inactive) | 44.9 µM (inactive) | 39.1 µM (inactive) | 91.6 µM (inactive) | > 100 µM (inactive) | 86.3 µM (inactive) | > 100 µM (inactive) | 65.5 µM (inactive) | 83.8 µM (inactive) | > 100 µM (inactive) | > 100 µM (inactive) | > 100 µM (inactive) | > 100 µM (inactive) | – | 84.1 µM (inactive) | > 100 µM (inactive) | > 100 µM (inactive) | – | – | – |
| C/C(CC(=O)Nc1ccc(C)c(C)c1)=N\N(c1ccccc1)c1ccccc1 | > 100 µM (inactive) | 26.4 µM (inactive) | 18.3 µM (inactive) | > 100 µM (inactive) | > 100 µM (inactive) | 64.1 µM (inactive) | – | 62.5 µM (inactive) | > 100 µM (inactive) | > 100 µM (inactive) | > 100 µM (inactive) | > 100 µM (inactive) | – | 15.2 µM (inactive) | > 100 µM (inactive) | 21.6 µM (inactive) | > 100 µM (inactive) | – | – | – |
| O=c1c2cc(Br)ccc2nc(CNc2ccccc2)n1-c1ccccc1 | 21.7 µM (inactive) | 3.09 µM (inactive) | 11.5 µM (inactive) | 36.7 µM (inactive) | 30.9 µM (inactive) | 14.9 µM (inactive) | 13.9 µM (inactive) | 9.59 µM (inactive) | 18.5 µM (inactive) | 16.2 µM (inactive) | 36.2 µM (inactive) | 21.1 µM (inactive) | 12.7 µM (inactive) | 15.2 µM (inactive) | 23.2 µM (inactive) | 8.51 µM (inactive) | 15.7 µM (inactive) | – | – | – |
| CC1(O)C(C)(O)C(C)(O)C1(C)O (stereo not given) | > 100 µM (inactive) | > 100 µM (inactive) | > 100 µM (inactive) | > 100 µM (inactive) | > 100 µM (inactive) | > 100 µM (inactive) | > 100 µM (inactive) | > 100 µM (inactive) | > 100 µM (inactive) | > 100 µM (inactive) | > 100 µM (inactive) | > 100 µM (inactive) | > 100 µM (inactive) | > 100 µM (inactive) | > 100 µM (inactive) | > 100 µM (inactive) | > 100 µM (inactive) | – | – | – |
| NCc1cccc(O)c1O | > 100 µM (inactive) | 55.3 µM (inactive) | > 100 µM (inactive) | > 100 µM (inactive) | > 100 µM (inactive) | > 100 µM (inactive) | 48.9 µM (inactive) | > 100 µM (inactive) | > 100 µM (inactive) | – | > 100 µM (inactive) | > 100 µM (inactive) | > 100 µM (inactive) | > 100 µM (inactive) | > 100 µM (inactive) | > 100 µM (inactive) | > 100 µM (inactive) | – | – | – |
| CCOc1ccc(NC(=O)/C(=C\c2ccc(C)cc2)C(C)=O)cc1 | > 100 µM (inactive) | > 100 µM (inactive) | > 100 µM (inactive) | > 100 µM (inactive) | > 100 µM (inactive) | > 100 µM (inactive) | > 100 µM (inactive) | > 100 µM (inactive) | > 100 µM (inactive) | > 100 µM (inactive) | > 100 µM (inactive) | > 100 µM (inactive) | > 100 µM (inactive) | > 100 µM (inactive) | > 100 µM (inactive) | > 100 µM (inactive) | – | – | – | – |
| COc1ccccc1C(=O)Nc1ccc(Cl)c(C(=O)OC(C)C)c1 | 40.2 µM (inactive) | 36.4 µM (inactive) | 19 µM (inactive) | > 100 µM (inactive) | 48 µM (inactive) | – | 30.8 µM (inactive) | > 45.8 µM (inactive) | 47.4 µM (inactive) | > 67.3 µM (inactive) | 99.5 µM (inactive) | 42 µM (inactive) | > 61.1 µM (inactive) | 43 µM (inactive) | 30.5 µM (inactive) | 25.9 µM (inactive) | 21.9 µM (inactive) | 49.2 µM (inactive) | > 100 µM (inactive) | 16.4 µM (inactive) |
| CC1(C)CCc2cc3c(cc2O1)OCCC3=O | > 100 µM (inactive) | > 100 µM (inactive) | 70 µM (inactive) | > 100 µM (inactive) | > 100 µM (inactive) | > 100 µM (inactive) | > 100 µM (inactive) | > 100 µM (inactive) | > 100 µM (inactive) | > 100 µM (inactive) | > 100 µM (inactive) | – | > 100 µM (inactive) | > 100 µM (inactive) | > 100 µM (inactive) | > 100 µM (inactive) | > 100 µM (inactive) | – | – | – |
| COc1ccc(C2=Nc3ccccc3SC(C)C2)cc1OC (stereo not given) | – | 31.8 µM (inactive) | 19.4 µM (inactive) | > 10 µM (inactive) | – | 17.4 µM (inactive) | – | 14.5 µM (inactive) | 20.4 µM (inactive) | – | 20.3 µM (inactive) | 27.4 µM (inactive) | 5.66 µM (inactive) | 17.2 µM (inactive) | 23.5 µM (inactive) | 17.8 µM (inactive) | 18.2 µM (inactive) | – | – | – |
| CC(C)C.C[N+](C)(C)C.OC(c1ccccc1)(C(F)(F)F)C(F)(F)F.OC(c1ccccc1)(C(F)(F)F)C(F)(F)F.[SiH3-] | 4.79 µM (inactive) | – | 7.16 µM (inactive) | 4.16 µM (inactive) | – | 4.19 µM (inactive) | 12.2 µM (inactive) | 1.73 µM (inactive) | 1.02 µM (active) | 2.51 µM (inactive) | – | 10.3 µM (inactive) | 5 µM (inactive) | 2.07 µM (inactive) | 14.1 µM (inactive) | – | 11.9 µM (inactive) | – | – | – |
| CC1C=C(OC(=O)c2ccccc2)C(=O)C(n2cc(F)c(=O)n(C(=O)c3ccccc3)c2=O)O1 (stereo not given) | > 100 µM (inactive) | 18.1 µM (inactive) | 42.1 µM (inactive) | > 100 µM (inactive) | > 100 µM (inactive) | – | 39.3 µM (inactive) | 32.7 µM (inactive) | – | 89.5 µM (inactive) | > 100 µM (inactive) | 51.2 µM (inactive) | 34.3 µM (inactive) | 37.3 µM (inactive) | 70.1 µM (inactive) | 35.3 µM (inactive) | 21.8 µM (inactive) | – | – | – |
| O=C(/C(=N/Nc1ccccc1)c1ccc([N+](=O)[O-])cc1)c1ccc([N+](=O)[O-])cc1 | > 100 µM (inactive) | – | > 100 µM (inactive) | > 100 µM (inactive) | – | > 100 µM (inactive) | > 100 µM (inactive) | > 100 µM (inactive) | – | > 100 µM (inactive) | > 100 µM (inactive) | > 100 µM (inactive) | > 100 µM (inactive) | > 100 µM (inactive) | > 100 µM (inactive) | > 100 µM (inactive) | > 100 µM (inactive) | – | – | – |
| Cn1cc(-c2ccc3c4ccccc4n(C)c3c2)c2ccccc21 | > 100 µM (inactive) | > 100 µM (inactive) | > 100 µM (inactive) | > 100 µM (inactive) | > 100 µM (inactive) | > 100 µM (inactive) | > 100 µM (inactive) | > 100 µM (inactive) | > 100 µM (inactive) | > 100 µM (inactive) | > 100 µM (inactive) | > 100 µM (inactive) | > 100 µM (inactive) | > 100 µM (inactive) | > 100 µM (inactive) | > 100 µM (inactive) | – | – | – | – |
| COc1ccc2c(=O)c(C)c(-c3ccccc3)oc2c1CN(C)C [DIMEFLINE] | > 100 µM (inactive) | > 100 µM (inactive) | – | > 100 µM (inactive) | > 100 µM (inactive) | > 100 µM (inactive) | – | > 100 µM (inactive) | > 100 µM (inactive) | > 100 µM (inactive) | > 100 µM (inactive) | > 100 µM (inactive) | – | – | – | > 100 µM (inactive) | 69.3 µM (inactive) | – | – | – |
